Data as given in patent publication US12391650B2, “Catecholamine prodrugs for use in the treatment of Parkinson's disease” (H. Lundbeck A/S, priority 2019, dated 2025).
Where two headings read alike, the source gives them in different places.

Legend:
[1] = PK experiments in rats after oral dosing, plasma compound (I); assay type: in vivo, Han Wistar rats; details: Wistar rats; for Observed metabolite, in vivo PK study after oral dosing (rats): plasma
Experimental: Plasma was placed on water-ice following collection. Final storage at approximately −70° C.
Mobile phase B: Acetonitrile. […] Flow rate 0.5 mL/min.
The rats had unrestricted access to the diet.
Mobile phase B: Acetonitrile+0.2% formic acid. […] Flow rate 0.3 mL/min.
Dosing and blood sampling for compound (Ic), compound (2), compound (3), compound (8), and compound (9): Han Wistar rats were supplied by Envigo, UK. […] The rats received a standard laboratory diet Teklad 2014C. The rats had unrestricted access to the diet. […] Rats were given 494 μg/kg (Ic), 392 μg/kg compound (8), 426 μg/kg compound (9), 359 μg/kg compound (3) and 551 μg/kg compound (2).

[2] = rats; cited from earlier work
human 5-HT2B receptor = molecular target: T1, human 5-HT2B receptor (Homo sapiens, UniProt P41595); assay: 5-HT2B agonist activity assay (IP1 production, HTRF, transfected CHO cells); assay type: cell-based
T1 construct: host or cells: CHO cells
Experimental: Evaluation of the agonist activity of compounds (I), (Ia), (Ib), (Ic), compound (2), compound (3), compound (6), compound (8), and compound (9) at the human 5-HT2B receptor was performed by Eurofins/Cerep (France) measuring the compound effects on inositol monophosphate (IP1) production using the HTRF detection method. Briefly, the human 5-HT2B receptor was expressed in transfected CHO cells. The cells were suspended in a buffer containing 10 mM Hepes/NaOH (pH 7.4), 4.2 mM KCl, 146 mM NaCl, 1 mM CaCl2, 0.5 mM MgCl2, 5.5 mM glucose and 50 mM LiCl, then distributed in microplates at a density of 4100 cells/well and incubated for 30 minutes at 37° C. in the presence of buffer (basal control), test compound or reference agonist. For stimulated control measurement, separate assay wells contained 1 μM 5-HT. Following incubation, the cells were lysed and the fluorescence acceptor (fluorophen D2-labeled IP1) and fluorescence donor (anti-IP1 antibody labeled with europium cryptate) were added. After 60 minutes at room temperature, the fluorescence transfer was measured at lambda(Ex) 337 nm and lambda(Em) 620 and 665 nm using a microplate reader (Rubystar, BMG). The IP1 concentration was determined by dividing the signal measured at 665 nm by that measured at 620 nm (ratio). The results were expressed as a percent of the control response to 1 μM 5-HT. The standard reference agonist was 5-HT, which was tested in each experiment at several concentrations to generate a concentration-response curve from which its EC50 value is calculated as described above for dopamine functional assays.

[3] = various animal models relevant for Parkinson's Disease; cited from earlier work
[4] = rat hepatocytes; cited from earlier work
[5] = human hepatocytes; cited from earlier work
[6] = Conversion of compounds in human plasma; assay type: in vitro ADME; details: for Observed metabolite, incubation in human plasma: 1 μM test compound, 37° C., 0-6 hours
Experimental: Frozen human plasma was thawed and then centrifuged at 3200×g for 5 minutes to remove debris. The pH value of the supernatant was then measured and adjusted to 7.4±0.1 by adding 1% phosphoric acid or 1 N sodium hydroxide. 2 μL of dosing solution (50 μM for test compounds and 100 μM for positive control (propantheline bromide)) was mixed with 98 μL of blank plasma to achieve 1 μM test compound and 2 μM positive control of final concentration. The mixture was incubated, and samples were withdrawn from the incubations at the pre-determined time points of 0, 0.5, 1, 2, 4 and 6 hours (in duplicate) at 37° C. in water bath. At each corresponding time point 10 μL inhibitor and 20 μL ascorbic acid and 2 μL formic acid (20%) are added, and then added 400 μL of “stop solution” (200 ng/mL tolbutamide plus 200 ng/mL labetalol in 50% ACN/MeOH) to precipitate protein. The substance was mixed thoroughly and thereafter centrifugated at 4,000 rpm for 20 minutes. Then an aliquot of supernatant (50 μL) was transferred from each well to a sample plate and mixed with 100 μL ultrapure water. The plate was shaked at 800 rpm for about 10 minutes before submitting to LC-MS/MS analysis.
Instrumentation used for analysis of plasma and hepatocyte incubation samples:
Mass spectrometer (LC-MS/MS) Shimadzu LC 20-AD Shimadzu UHPLC API 4000. Analytical column ACQUITY UPLC® BEH Phenyl 1.7 μm 2.1×50 mm. Mobile phase A: 0.1% Formic Acid in water. Mobile phase B: 0.1% formic acid in acetonitrile. […] Flow rate 0.7 mL/min.

[7] = PD patients, intravenous (IV); cited from earlier work
[8] = man, oral dosing, extensive hepatic first-pass metabolism; cited from earlier work
[9] = Conversion of compounds in human hepatocytes; assay type: in vitro ADME; details: 1 μM compound, 37° C.
Experimental: Incubations were conducted in 96-well plates at 1 μM compound concentration in duplicate. The hepatocyte cell concentration was 0.5×10^6 cells/mL used for final incubation at 37° C. in an incubator of 5% CO2 95% relative humidity. The medium control samples were included at 0 and 60 minutes in the absence of cells. The total organic concentration was 1% (DMSO 0.1%) in the final incubation. The controls, (7-ethoxycoumarin and 7-hydroxycoumarin) was incubated parallel at […]. 2 μL of dosing solution (50 μM for test compounds and 100 μM for positive control) was mixed with 98 μL of 100 mM PBS to achieve 1 μM test compound and 2 μM positive control of final concentration. The mixture was incubated, and samples were withdrawn from the incubations at pre-determined time points of 0, 0.5, 1, 2, 4 and 6 hours (in duplicate) at 37° C. in water bath. To each sample, 10 μL inhibitor and 20 μL ascorbic acid and 2 μL formic acid (20%) were added followed by 400 μL of stop solution (200 ng/mL tolbutamide plus 200 ng/mL labetalol in 50% ACN/MeOH). The substance was mixed thoroughly and thereafter centrifuged at 4,000 rpm for 20 minutes. An aliquot of supernatant (50 μL) from each well were transferred to a sample plate and mixed with 100 μL ultrapure water. The plate was shaked at 800 rpm for about 10 minutes before submitting to LC-MS/MS analysis. […]

[10] = rats; cited from earlier work; remark: listed apart in the source
[11] = percent of the control response to 1 μM 5-HT

T1 sequence (P41595 whole entry): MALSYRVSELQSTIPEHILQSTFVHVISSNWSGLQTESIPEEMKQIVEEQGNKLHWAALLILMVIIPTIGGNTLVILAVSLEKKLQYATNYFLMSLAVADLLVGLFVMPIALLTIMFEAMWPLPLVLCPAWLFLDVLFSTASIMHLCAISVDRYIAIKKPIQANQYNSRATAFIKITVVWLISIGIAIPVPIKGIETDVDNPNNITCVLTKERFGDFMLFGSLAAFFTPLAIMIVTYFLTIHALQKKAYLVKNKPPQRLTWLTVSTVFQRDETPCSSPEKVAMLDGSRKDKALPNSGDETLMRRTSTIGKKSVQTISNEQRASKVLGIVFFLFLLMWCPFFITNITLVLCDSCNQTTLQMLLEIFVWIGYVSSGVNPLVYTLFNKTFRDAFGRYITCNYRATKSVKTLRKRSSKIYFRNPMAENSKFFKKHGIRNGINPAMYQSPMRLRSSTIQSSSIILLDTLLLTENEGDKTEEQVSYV

Structure (SMILES) | Plasma concentration profile of compound (I) after oral dosing, in words [1] | In vivo pharmacology, efficacy [3] | Observed metabolite, in vivo PK study after oral dosing (rats) [1] | 5-HT2B % effect @ 10 μM (human 5-HT2B receptor; [11]) [% @ 10 μM] | Observed metabolite, incubation in human plasma [6] | other results
CCCN1CCC[C@@H]2CC3=C(CCCC3=O)C[C@H]21 [(Ia), reference compound] | early and high peak plasma concentrations of compound (I) | effective | – | – | – | Conversion to the active compound (I) [2]: converted to the active compound (I); 5-HT2B % effect @ 30 μM (human 5-HT2B receptor; 30 μM, percent of the control response to 1 μM 5-HT): 58%
CCCN1CCC[C@@H]2Cc3c(ccc4c3OCO4)C[C@H]21 [(Ib), (6aR,10aR)-7-propyl-6,6a,7,8,9,10,10a,11-octahydro-[1,3]dioxolo[4′,5′:5,6]benzo[1,2-g]quinoline] | early and high peak plasma concentrations of compound (I) | effective | – | – | – | Conversion to compound (I) [4]: demonstrated; Conversion to compound (I) [5]: demonstrated; 5-HT2B receptor agonism, in words (human 5-HT2B receptor): agonist of the 5-HT2B receptor
CCC[N@+]1(COP(=O)([O-])O)CCC[C@@H]2Cc3c(ccc(O)c3O)C[C@H]21 [Compound (9), ((1S,4aR,10aR)-6,7-dihydroxy-1-propyl-1,2,3,4,4a,5,10,10a-octahydrobenzo[g]quinolin-1-ium-1-yl)methyl hydrogen phosphate] | – | – | Compound (1) | −1 | Compound (1) | –
CCCc1cc2c(s1)CN[C@@H]1CCc3cc(OC(C)=O)c(OC(C)=O)cc3[C@@H]21 [Adrogolide] | – | – | – | – | – | Antiparkinson efficacy [7]: comparable to that of L-DOPA; Oral bioavailability [8]: ~4%
CCCN1CCC[C@@H]2Cc3c(ccc(OC(=O)C(C)(C)C)c3OC(=O)C(C)(C)C)C[C@H]21 [(Ic), reference compound] | extremely low | – | – | −5 | – | –
CCCN1CCC[C@@H]2Cc3c(ccc(O)c3OP(=O)(O)O)C[C@H]21 [Compound (8), (4aR,10aR)-7-hydroxy-1-propyl-1,2,3,4,4a,5,10,10a-octahydrobenzo[g]quinolin-6-yl dihydrogen phosphate] | – | – | Compound (1) | – | Compound (1) | 5-HT2B % effect @ 1 μM (human 5-HT2B receptor; 1 μM, percent of the control response to 1 μM 5-HT): 0% @ 1 μM
CCCN1CCC[C@@H]2Cc3c(ccc(OP(=O)(O)O)c3OP(=O)(O)O)C[C@H]21 [Compound (6), (4aR,10aR)-1-propyl-1,2,3,4,4a,5,10,10a-octahydrobenzo[g]quinoline-6,7-diyl bis(dihydrogen phosphate)] | – | – | – | 4 | Compound (8) | Observed metabolite, incubation in human plasma ([6]; listed as compound (6)): compound (8) was formed; Appearance of compound (I) in incubation ([6]; human plasma, in words): no appearance of compound (I) was observed
CCCN1CCC[C@@H]2Cc3c(ccc(OC)c3O)C[C@H]21 [Compound (3), (4aR,10aR)-7-methoxy-1-propyl-1,2,3,4,4a,5,10,10a-octahydrobenzo[g]quinolin-6-ol] | – | – | Compound (1) | 27 | – | Observed metabolite, incubation in human hepatocytes [9]: Compound (1)
CCCN1CCC[C@@H]2Cc3c(ccc(OCc4ccccc4)c3O)C[C@H]21 [Compound (2), (4aR,10aR)-7-(benzyloxy)-1-propyl-1,2,3,4,4a,5,10,10a-octahydrobenzo[g]quinolin-6-ol] | – | – | Compound (1) | 30 | Compound (1) | Observed metabolite, incubation in human hepatocytes [9]: Compound (1)
CCCN1CCC[C@@H]2Cc3c(ccc(O)c3O)C[C@H]21 [compound (I), (4aR,10aR)-1-n-Propyl-1,2,3,4,4a,5,10,10a-octahydro-benzo[g]quinoline-6,7-diol] | – | effective | – | – | – | Oral bioavailability, in words [10]: low oral bioavailability; Half-life in the plasma assay ([6]; human plasma, in words): short half-life
